Values joined by “and” are separate entries in the source; they are usually repeats but may differ in a detail not shown here. Equal entries are not always repeated.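 Five compound concentrations were applied to cells in 96-well plates for 48 hours; endpoints were derived by simple linear interpolation of the resulting dose-response curve. GI50 = concentration required for 50% inhibition of growth. Definition used: TGI = concentration required for complete inhibition of growth.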
Tests used:
Test in all cases: NCI-60 cell line screen, 48 h
[1] = test system: 786-0 renal
[2] = test system: HCC-2998 colon
[3] = test system: HCT-15 colon
[4] = test system: HOP-62 NSCLC
[5] = test system: HT29 colon
[6] = test system: KM12 colon
[7] = test system: LOX IMVI melanoma
[8] = test system: NCI-H23 lung
[9] = test system: SF-539 CNS
[10] = test system: UACC-62 melanoma

## c1ccc(C2ONC3=NCCN32)cc1 (centres undefined)
[1]
  GI50: 13.3 µM
  TGI: 68 µM
[2]
  GI50: 58.1 µM
  TGI: > 100 µM
[3]
  GI50: 16.9 µM
  TGI: > 100 µM
[4]
  GI50: 49.4 µM
  TGI: > 100 µM
[5]
  GI50: 67.9 µM
  TGI: > 100 µM
[6]
  GI50: 51.3 µM
  TGI: > 100 µM
[7]
  GI50: 11.3 µM
  TGI: > 100 µM
[8]
  GI50: 66.2 µM
  TGI: > 100 µM
[9]
  GI50: 46.6 µM
  TGI: > 100 µM
[10]
  GI50: 39.4 µM
  TGI: > 100 µM

## C=C1CCC2C3(C)COC(C)(C)OC3CCC2(C)C1C/C=C1/C(=O)OCC1OC(C)=O (centres undefined)
[1]
  GI50: 2.89 µM
  TGI: 8.05 µM
[2]
  GI50: 15.2 µM
  TGI: 28.8 µM
[3]
  GI50: 1.61 µM
  TGI: 4.19 µM
[4]
  GI50: 11.9 µM
  TGI: 25 µM
[5]
  GI50: 1.89 µM
  TGI: 4.85 µM
[6]
  GI50: 3.88 µM
  TGI: 13.4 µM
[7]
  GI50: 0.704 µM
  TGI: 2.46 µM
[8]
  GI50: 4.34 µM
  TGI: 16.1 µM
[9]
  GI50: 1.72 µM
  TGI: 3.3 µM
[10]
  GI50: 4.04 µM
  TGI: 17 µM

## C=CCc1c(Cl)nc(Cl)nc1Cl
[1]
  TGI: 0.368 µM
[2]
  TGI: 3.4 µM
[3]
  TGI: 0.938 µM
[4]
  TGI: 1.07 µM
[5]
  TGI: 0.805 µM
[6]
  TGI: 0.888 µM
[7]
  TGI: 0.344 µM
[8]
  TGI: 1.81 µM
[9]
  TGI: 3.78 µM
[10]
  TGI: 2.07 µM

## CN(C)c1cc2ccccc2oc1=O
[1]
  TGI: > 100 µM
[2]
  TGI: > 100 µM
[3]
  TGI: > 100 µM
[4]
  TGI: > 100 µM
[5]
  TGI: > 100 µM
[6]
  TGI: > 100 µM
[7]
  TGI: > 100 µM
[8]
  TGI: > 100 µM
[9]
  TGI: > 100 µM
[10]
  TGI: > 100 µM

## COc1ccc2nccc(C3=CCC4CCN(C(=O)c5ccccc5)C3C4)c2c1 (centres undefined)
[1]
  TGI: > 100 µM
[2]
  TGI: > 100 µM
[3]
  TGI: > 100 µM
[4]
  TGI: > 100 µM
[5]
  TGI: > 100 µM
[6]
  TGI: > 100 µM
[7]
  TGI: > 100 µM
[8]
  TGI: > 100 µM
[9]
  TGI: > 100 µM
[10]
  TGI: > 100 µM

## Cc1ccc(S(=O)(=O)SC/C=C\CSS(=O)(=O)c2ccc(C)cc2)cc1
[1]
  TGI: > 66.2 µM and 32.3 µM
[2]
  TGI: > 100 µM
[3]
  GI50: 6.16 µM and 43.4 µM
  TGI: > 100 µM
[4]
  TGI: > 100 µM
[5]
  GI50: 6.14 µM and 20.3 µM
  TGI: > 62.8 µM and 39.7 µM
[6]
  TGI: > 100 µM and 30.4 µM
[7]
  GI50: 4.68 µM and 13.5 µM
  TGI: 33.2 µM and 29.1 µM
[8]
  TGI: 73.9 µM and 34.7 µM
[9]
  GI50: 7 µM and 17.2 µM
  TGI: 43.6 µM and 33.3 µM
[10]
  TGI: > 79.9 µM and 45.5 µM

From PubChem BioAssay (NCI)
